From ChEMBL document CHEMBL1125892 (J Med Chem, 1991)

Assays:
[1] = tested on: Rattus norvegicus; experiment: In vivo inhibition of conditional avoidance response in rats(CAR), after sc administration; format: functional
[2] = target: T1, 5-hydroxytryptamine receptor 2A (Rattus norvegicus, UniProt P14842); experiment: Binding affinity against rat 5-hydroxytryptamine 2 receptor in rat cerebral cortex tissue using [3H]spiperone as radioligand; IA-Inactive; format: tissue-based
[3] = target: T2, D(2) dopamine receptor (Rattus norvegicus, UniProt P61169)
[4] = target: T3, 5-hydroxytryptamine receptor 1A (Rattus norvegicus, UniProt P19327); experiment: Displacement of [3H]8-OH-DPAT from rat hippocampal 5-hydroxytryptamine 1A receptor; IA-Inactive; format: tissue-based, Hippocampus
T3 sequence (P19327 whole entry): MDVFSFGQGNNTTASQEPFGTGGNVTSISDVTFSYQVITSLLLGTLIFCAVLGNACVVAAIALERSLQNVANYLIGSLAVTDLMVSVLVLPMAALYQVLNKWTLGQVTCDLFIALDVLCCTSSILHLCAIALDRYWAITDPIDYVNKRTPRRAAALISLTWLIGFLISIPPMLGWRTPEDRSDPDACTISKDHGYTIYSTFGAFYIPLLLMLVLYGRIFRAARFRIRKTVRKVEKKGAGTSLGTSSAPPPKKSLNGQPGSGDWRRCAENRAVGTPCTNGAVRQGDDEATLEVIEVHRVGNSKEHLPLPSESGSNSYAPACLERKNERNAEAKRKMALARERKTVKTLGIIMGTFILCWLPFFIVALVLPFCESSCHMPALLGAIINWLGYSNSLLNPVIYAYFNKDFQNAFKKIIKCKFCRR

[5] = species on record: Rattus norvegicus; experiment: Selectivity ratio of IC50 for dopamine receptor and Alpha-1 receptor
[6] = target: T3, 5-hydroxytryptamine receptor 1A; experiment: Binding affinity against 5-hydroxytryptamine 1A receptor using in rat hippocampal tissue using [3H]8-OH-DPAT as radioligand; format: tissue-based, Hippocampus
[7] = target: T4, Adrenergic receptor alpha-1 (Rattus norvegicus, UniProt P15823+P23944+P43140); experiment: Binding affinity against alpha-1 adrenergic receptor in rat cerebral cortex tissue using [3H]WB-4101 as radioligand; format: tissue-based
T4 sequence (P15823 whole entry): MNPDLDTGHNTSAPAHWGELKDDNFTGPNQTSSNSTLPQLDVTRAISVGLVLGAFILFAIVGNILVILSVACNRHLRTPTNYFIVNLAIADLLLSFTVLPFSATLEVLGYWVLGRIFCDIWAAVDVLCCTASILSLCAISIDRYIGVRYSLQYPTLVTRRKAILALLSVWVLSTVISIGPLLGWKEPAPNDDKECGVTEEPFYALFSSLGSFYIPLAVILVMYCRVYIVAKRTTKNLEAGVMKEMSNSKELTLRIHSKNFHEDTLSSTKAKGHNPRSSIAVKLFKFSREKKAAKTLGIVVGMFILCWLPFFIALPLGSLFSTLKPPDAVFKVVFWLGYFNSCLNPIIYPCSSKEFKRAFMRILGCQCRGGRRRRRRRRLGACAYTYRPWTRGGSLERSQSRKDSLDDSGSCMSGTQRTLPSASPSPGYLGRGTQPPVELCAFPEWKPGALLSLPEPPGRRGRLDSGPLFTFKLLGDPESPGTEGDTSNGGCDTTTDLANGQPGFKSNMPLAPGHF
T4 sequence (P23944 whole entry): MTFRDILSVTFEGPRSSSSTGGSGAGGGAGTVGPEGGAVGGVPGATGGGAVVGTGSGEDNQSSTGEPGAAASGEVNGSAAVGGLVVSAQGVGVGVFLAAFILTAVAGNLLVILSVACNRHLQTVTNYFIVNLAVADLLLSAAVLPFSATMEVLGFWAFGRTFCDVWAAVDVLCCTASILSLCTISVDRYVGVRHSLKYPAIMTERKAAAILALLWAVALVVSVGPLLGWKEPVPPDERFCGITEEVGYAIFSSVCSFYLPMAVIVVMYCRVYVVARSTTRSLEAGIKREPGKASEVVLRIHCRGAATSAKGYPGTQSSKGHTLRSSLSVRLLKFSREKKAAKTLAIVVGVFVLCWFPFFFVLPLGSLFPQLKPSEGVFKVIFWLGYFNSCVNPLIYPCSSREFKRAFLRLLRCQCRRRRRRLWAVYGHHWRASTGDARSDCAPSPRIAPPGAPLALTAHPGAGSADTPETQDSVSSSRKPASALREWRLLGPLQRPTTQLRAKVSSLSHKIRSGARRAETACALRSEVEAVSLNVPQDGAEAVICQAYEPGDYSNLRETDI
T4 sequence (P43140 whole entry): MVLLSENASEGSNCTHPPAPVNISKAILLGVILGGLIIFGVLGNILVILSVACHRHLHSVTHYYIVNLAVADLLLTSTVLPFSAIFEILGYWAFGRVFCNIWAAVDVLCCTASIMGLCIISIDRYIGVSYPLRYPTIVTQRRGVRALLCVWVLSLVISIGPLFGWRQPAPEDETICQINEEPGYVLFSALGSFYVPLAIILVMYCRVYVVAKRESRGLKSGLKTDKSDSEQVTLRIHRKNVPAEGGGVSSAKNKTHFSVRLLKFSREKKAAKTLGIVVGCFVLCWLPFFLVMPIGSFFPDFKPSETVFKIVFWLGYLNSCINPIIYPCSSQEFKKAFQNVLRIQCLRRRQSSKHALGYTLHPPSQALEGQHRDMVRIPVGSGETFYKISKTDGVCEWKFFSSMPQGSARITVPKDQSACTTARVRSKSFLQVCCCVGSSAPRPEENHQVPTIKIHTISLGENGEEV

[8] = target: T2, D(2) dopamine receptor; experiment: Binding affinity against dopamine receptor D2 in rat corpus striatal tissue using [3H]spiperone as radioligand; format: tissue-based, Striatum
[9] = target: T1, 5-hydroxytryptamine receptor 2A; experiment: Binding affinity against rat 5-hydroxytryptamine 2 receptor in rat cerebral cortex tissue using [3H]spiperone as radioligand; format: tissue-based
[10] = target: T3, 5-hydroxytryptamine receptor 1A; experiment: Binding affinity against 5-hydroxytryptamine 1A receptor of rat hippocampal tissue with [3H]5-HT; format: tissue-based, Hippocampus
[11] = tested on: Rattus norvegicus; experiment: In vivo inhibition of conditional avoidance response in rats(CAR), after po administration; format: functional
[12] = target: T2, D(2) dopamine receptor; experiment: Binding affinity against Dopamine receptor D2 receptor of rat corpus striatal tissue with [3H]spiperone
[13] = tested on: Rattus norvegicus; experiment: In vivo inhibition of conditional avoidance response in rats(CAR), after im administration; format: functional

T1 sequence (P14842 whole entry): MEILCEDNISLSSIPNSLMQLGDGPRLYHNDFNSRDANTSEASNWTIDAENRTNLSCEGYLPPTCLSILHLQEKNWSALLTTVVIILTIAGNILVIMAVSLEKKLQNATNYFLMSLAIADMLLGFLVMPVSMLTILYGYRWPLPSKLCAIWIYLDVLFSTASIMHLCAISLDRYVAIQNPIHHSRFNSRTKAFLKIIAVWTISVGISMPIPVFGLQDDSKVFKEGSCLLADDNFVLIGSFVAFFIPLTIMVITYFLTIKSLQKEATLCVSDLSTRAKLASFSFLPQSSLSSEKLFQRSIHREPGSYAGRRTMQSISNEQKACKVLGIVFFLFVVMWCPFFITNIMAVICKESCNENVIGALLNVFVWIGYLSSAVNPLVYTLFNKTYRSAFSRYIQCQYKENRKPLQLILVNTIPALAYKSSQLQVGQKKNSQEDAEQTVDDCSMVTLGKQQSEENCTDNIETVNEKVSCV
T2 sequence (P61169 whole entry): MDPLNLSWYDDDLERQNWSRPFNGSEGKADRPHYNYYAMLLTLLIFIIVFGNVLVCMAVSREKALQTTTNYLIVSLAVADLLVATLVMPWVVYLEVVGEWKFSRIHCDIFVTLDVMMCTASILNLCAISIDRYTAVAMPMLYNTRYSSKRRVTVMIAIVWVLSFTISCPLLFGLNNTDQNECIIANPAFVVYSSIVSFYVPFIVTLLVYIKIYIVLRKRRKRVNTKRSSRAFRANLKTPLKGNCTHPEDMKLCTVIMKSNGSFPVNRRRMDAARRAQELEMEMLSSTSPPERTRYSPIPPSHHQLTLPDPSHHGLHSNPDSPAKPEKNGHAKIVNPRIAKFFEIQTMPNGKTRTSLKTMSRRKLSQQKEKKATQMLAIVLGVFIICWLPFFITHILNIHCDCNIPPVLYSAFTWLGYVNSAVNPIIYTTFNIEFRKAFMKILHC

| SMILES | IC50 [2] | IC50 [3] | IC50 [4] | IC50 [6] [nM] | further results |
| --- | --- | --- | --- | --- | --- |
| O=C1CCC2(C1)CC(=O)N(CCCCN1CCN(c3n[s+]([O-])c4ccccc34)CC1)C(=O)C2 (stereo not drawn) | Not Active | Not Active | Not Active | – | ED50 [1]: > 100 mg/kg |
| O=C1CCC2(C1)CC(=O)N(CCCCN1CCN(c3nsc4ccccc34)CC1)C(=O)C2 | – | – | – | 2.99 | Ratio [5]: 52; IC50 [7]: 1.3 nM; ED50 [1]: > 60.3 mg/kg; IC50 [8]: 68.3 nM |
| O=C1CC2(CCCC2)C(C(=O)NCCCCN2CCN(c3nsc4ccccc34)CC2)O1 (stereo not drawn) | – | – | – | 98.7 | Ratio [5]: 60; IC50 [7]: 2.5 nM; IC50 [9]: 4.5 nM; IC50 [8]: 150 nM |
| O=C1CC2(CCC(O)C2)CC(=O)N1CCCCN1CCN(C2=NS(=O)(=O)c3ccccc32)CC1 (stereo not drawn) | Not Active | Not Active | Not Active | – | ED50 [1]: > 100 mg/kg |
| COc1cccc2snc(N3CCNCC3)c12 | Not Active | Not Active | – | – | IC50 [10]: 121 nM |
| O=C1CC2(CCCC2)C(O)C(=O)N1CCCCN1CCN(c2n[s+]([O-])c3ccccc23)CC1 (stereo not drawn) | Not Active | Not Active | Not Active | – | – |
| O=C1CC2(CCCC2)CC(=O)N1CCC(O)CN1CCN(c2n[s+]([O-])c3ccccc23)CC1 (stereo not drawn) | Not Active | Not Active | Not Active | – | ED50 [11]: > 50 mg/kg |
| O=C1CC2(CCC(O)C2)CC(=O)N1CCC(O)CN1CCN(c2nsc3ccccc23)CC1 (stereo not drawn) | – | – | – | 14.2 | Ratio [5]: 69; IC50 [7]: 7.15 nM; IC50 [8]: 491 nM |
| O=C1CC2(CCC(O)C2)CC(=O)N1CCCCN1CCN(c2n[s+]([O-])c3ccccc23)CC1 (stereo not drawn) | Not Active | Not Active | Not Active | – | ED50 [1]: > 100 mg/kg |
| O=C1CC2(CCCC2)CC(=O)N1CCCCN1CCN(c2nsc3ccccc23)CC1 [TIOSPIRONE] | – | – | – | – | IC50 [12]: 8.4 nM; ED50 [13]: 0.35 mg/kg |
| O=S1(=O)N=C(N2CCNCC2)c2ccccc21 [BENZISOTHIAZOLE-3YL-PIPERAZINE SULFOXIDE] | Not Active | Not Active | Not Active | – | ED50 [11]: > 100 mg/kg |
| [O-][s+]1nc(N2CCNCC2)c2ccccc21 (stereo not drawn) [BITP-SULFONE] | Not Active | Not Active | Not Active | – | ED50 [11]: > 100 mg/kg |
| O=C1CC2(CCCC2)CC(=O)N1CCCCN1CCN(c2n[s+]([O-])c3ccccc23)CC1 (stereo not drawn) | Not Active | Not Active | Not Active | – | ED50 [11]: 11 mg/kg |
| COc1cccc2c(N3CCNCC3)nsc12 | Not Active | Not Active | Not Active | – | – |
| O=C1CC2(CCCC2)C(O)C(=O)N1CCCCN1CCN(c2nsc3ccccc23)CC1 (stereo not drawn) | – | – | – | 5.06 | ED50 [13]: 1 mg/kg |
| c1ccc2c(N3CCNCC3)nsc2c1 [BENZISOTHIAZOLE-3-YL-PIPERAZINE] | – | Not Active | – | 190 | ED50 [11]: > 100 mg/kg |
| COc1ccc2c(N3CCNCC3)nsc2c1 | Not Active | Not Active | Not Active | – | – |
| O=C1CC2(CCCC2)CC(=O)N1CCCCN1CCN(C2=NS(=O)(=O)c3ccccc32)CC1 | Not Active | Not Active | Not Active | – | ED50 [13]: > 10 mg/kg |
| O=C1CC2(CCC(O)C2)CC(=O)N1CCCCN1CCN(c2nsc3ccccc23)CC1 (stereo not drawn) | – | – | – | 3.75 | Ratio [5]: 60; IC50 [7]: 0.876 nM; IC50 [8]: 52.5 nM |
| O=C1CC2(CCCC2)CC(=O)N1CCC(O)CN1CCN(c2nsc3ccccc23)CC1 (stereo not drawn) | – | – | – | 24.9 | Ratio [5]: 13; IC50 [7]: 8.3 nM; IC50 [8]: 111 nM |
| COc1ccc2snc(N3CCNCC3)c2c1 | Not Active | Not Active | – | – | IC50 [10]: 20.9 nM |
| O=C1CC2(CCCC2)C(O)C(=O)N1CCCCN1CCN(C2=NS(=O)(=O)c3ccccc32)CC1 (stereo not drawn) | Not Active | Not Active | Not Active | – | – |
| O=C1CN(C2=NS(=O)(=O)c3ccccc32)CCN1 | Not Active | Not Active | Not Active | – | ED50 [1]: > 50 mg/kg |
